Reference: patent publication US20090299044A1 (priority 2006, published 2009)
Entries after “also recorded” stand apart in the source; their conditions may differ. Bridge positions count the residues as written; N and C are the ends. Peptide text beside a SMILES is read from it.

Assays:
human Kv1.1 [1] = biological target: T1, human Kv1.1 (Homo sapiens, UniProt Q09470); test: cell-based or functional assay
[2] = system: IL-2 production, human whole blood; type: cell-based
[3] = system: IFN-g production, human whole blood; type: cell-based
[4] = system: IL-2R on CD4+ T cells, human whole blood; type: cell-based
[5] = system: CD40L on CD4+ T cells, human whole blood; type: cell-based
[6] = biological target: human Kv1.1 voltage-gated potassium channel (human) (UniProt Q09470); test: cell-based or functional assay
human Kv1.1 voltage-gated potassium channel (human), sequence (Q09470 whole entry): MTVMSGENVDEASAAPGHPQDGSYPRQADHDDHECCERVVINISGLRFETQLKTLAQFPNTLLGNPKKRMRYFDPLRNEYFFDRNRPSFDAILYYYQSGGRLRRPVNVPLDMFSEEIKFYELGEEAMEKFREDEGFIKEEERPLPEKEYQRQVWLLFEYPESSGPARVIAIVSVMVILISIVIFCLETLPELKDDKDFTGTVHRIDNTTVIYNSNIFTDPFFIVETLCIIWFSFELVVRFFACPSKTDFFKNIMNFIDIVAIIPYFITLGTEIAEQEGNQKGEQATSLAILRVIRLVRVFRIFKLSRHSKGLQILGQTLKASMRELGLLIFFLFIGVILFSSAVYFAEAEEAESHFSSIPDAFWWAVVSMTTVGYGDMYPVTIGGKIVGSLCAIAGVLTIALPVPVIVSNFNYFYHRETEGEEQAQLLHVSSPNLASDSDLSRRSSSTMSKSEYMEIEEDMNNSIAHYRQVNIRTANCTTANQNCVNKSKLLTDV

[7] = biological target: human Kv1.3 voltage-gated potassium channel (human) (UniProt P22001); test: cell-based or functional assay
human Kv1.3 voltage-gated potassium channel (human), sequence (P22001 whole entry): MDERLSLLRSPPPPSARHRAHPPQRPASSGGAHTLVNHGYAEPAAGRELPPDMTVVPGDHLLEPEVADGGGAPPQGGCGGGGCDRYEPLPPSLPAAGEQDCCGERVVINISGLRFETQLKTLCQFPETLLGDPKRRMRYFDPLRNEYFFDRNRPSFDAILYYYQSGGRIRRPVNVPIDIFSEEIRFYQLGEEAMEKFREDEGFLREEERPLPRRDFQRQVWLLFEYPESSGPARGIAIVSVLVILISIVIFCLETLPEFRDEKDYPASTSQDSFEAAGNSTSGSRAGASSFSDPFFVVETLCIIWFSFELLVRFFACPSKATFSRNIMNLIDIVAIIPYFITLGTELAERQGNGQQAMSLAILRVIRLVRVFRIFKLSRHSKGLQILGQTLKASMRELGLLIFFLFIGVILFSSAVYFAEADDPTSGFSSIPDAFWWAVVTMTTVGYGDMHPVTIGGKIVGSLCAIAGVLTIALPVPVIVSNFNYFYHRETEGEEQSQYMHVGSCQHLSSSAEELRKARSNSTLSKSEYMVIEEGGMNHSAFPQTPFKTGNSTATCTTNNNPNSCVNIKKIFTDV

human Kv1.3 channel [8] = biological target: T2, human Kv1.3 channel (Homo sapiens, UniProt P22001); test: cell-based; type: cell-based
T2 sequence (P22001 whole entry): as above

human Kv1.3 channel [9] = biological target: T2, human Kv1.3 channel; test: cell-based or functional assay
[10] = rat, in vivo, iv, 1 mg/kg
[11] = cited from earlier work
human Kv1.3 (CHO) = biological target: T3, human Kv1.3 (CHO) (Homo sapiens, UniProt P22001); test: cell-based
T3 construct: expressed in transfected cells; host or cells: CHO
T3 sequence (P22001 whole entry): as above

human Kv1.1 [12] = biological target: T1, human Kv1.1; test: cell-based; parameters: expressed in transfected cells; host or cells: HEK293
human Kv1.1 (HEK293) = biological target: T4, human Kv1.1 (HEK293) (Homo sapiens, UniProt Q09470); test: cell-based
T4 construct: expressed in transfected cells; host or cells: HEK293
T4 sequence (Q09470 whole entry): as the sequence (Q09470 whole entry) above

T1 sequence (Q09470 whole entry): as above

**Q.** For Fc-L10-OSK1 (CHO-expressed) (Fc fusion), which hKv1.1: IC50 (whole cell patch clamp, block of K+ current) (human Kv1.1 [1]) is on record?
**A.** 41.6 nM

**Q.** Which results are given for “IbTx: BKCa channel inhibitor iberiotoxin, Bachem (QFTDVDCSVSKECWSVCKDLFGVDRGKCMGKKCRCYQ; Definition of Artificial Sequence: Synthetic peptide) [reference compound]”?
**A.** thapsigargin-induced IL-2 production in human whole blood (in words) [2]: no significant activity; thapsigargin-induced IFN-g production in human whole blood (in words) [3]: no significant activity; thapsigargin-induced upregulation of the IL-2R on T cells in human whole blood (in words) [4]: no significant activity; thapsigargin-induced upregulation of CD40L on T cells in human whole blood (in words) [5]: no significant activity

**Q.** Which Kv1.1 (IC50, pM), whole cell patch clamp ePhys [6] does the source give for “OSK1 (native Orthochirus scrobiculosus toxin peptide)” here?
**A.** 202 pM

**Q.** What about the Kv1.3 (IC50, pM), whole cell patch clamp ePhys [7] of the same molecule?
**A.** 39 pM

**Q.** And the Kv1.3 Selectivity (=Kv1.1/Kv.3 IC50) [7]?
**A.** 5

**Q.** With “Fc-L10-ShK[2-35]: human IgG1 Fc fused via 10 amino acid linker to ShK[2-35], CHO-derived peptibody” as the molecule, how does the “block of human Kv1.3 current (in words)” value (human Kv1.3 channel [8]) read?
**A.** potently blocks

**Q.** What about the “thapsigargin-induced IL-2 production in human whole blood (in words)” value [2] of the same molecule?
**A.** potently blocked IL-2 secretion in human whole blood; also recorded: suppressed

**Q.** And the “thapsigargin-induced IFN-g production in human whole blood (in words)” value [3]?
**A.** suppressed; also recorded: blocked

**Q.** And the “thapsigargin-induced upregulation of the IL-2R on T cells in human whole blood (in words)” value [4]?
**A.** suppressing activation of the IL-2R on CD4+ T cells; also recorded: blocked

**Q.** And the “thapsigargin-induced upregulation of CD40L on T cells in human whole blood (in words)” value [5]?
**A.** blocked

**Q.** What does the source list for Synthetic OSK1 toxin peptide?
**A.** hKv1.3: IC50 (whole cell patch clamp, block of K+ current) (human Kv1.3 channel [9]): 0.039 nM; hKv1.1: IC50 (whole cell patch clamp, block of K+ current) (human Kv1.1 [1]): 0.16 nM

**Q.** What does the source list for `CC[C@H](C)[C@@H]1NC(=O)[C@@H](NC(=O)[C@H](CO)NC(=O)[C@@H](N)CCCNC(=N)N)CSSC[C@@H](C(=O)O)NC(=O)[C@H]([C@@H](C)O)NC(=O)CNC(=O)[C@@H]2CSSC[C@@H]3NC(=O)[C@H](CCC(N)=O)NC(=O)[C@H](Cc4ccccc4)NC(=O)[C@H](C)NC(=O)[C@H]([C@@H](C)O)NC(=O)[C@H](CSSC[C@H](NC(=O)[C@H](Cc4ccccc4)NC(=O)[C@H](CO)NC(=O)[C@H](CC(C)C)NC(=O)[C@H](CCCNC(=N)N)NC(=O)[C@H](Cc4ccc(O)cc4)NC(=O)[C@H](CCCCN)NC(=O)[C@H](CCSC)NC(=O)[C@H](CO)NC(=O)[C@H](Cc4cnc[nH]4)NC(=O)[C@H](CCCCN)NC3=O)C(=O)N[C@@H](CCCNC(=N)N)C(=O)N[C@@H](CCCCN)C(=O)N[C@@H]([C@@H](C)O)C(=O)N2)NC(=O)[C@H](CCCNC(=N)N)NC(=O)[C@H](CO)NC(=O)[C@H](CCCCN)NC(=O)[C@@H]2CCCN2C(=O)[C@H]([C@@H](C)CC)NC(=O)[C@H]([C@@H](C)O)NC(=O)[C@H](CC(=O)O)NC1=O` [ShK[1-35]]?
**A.** duration of significant suppression of Kv1.3 current (<70 POC) by 5% serum Test solutions [10]: ≤ 1 h; half-life in vivo [11]: ~20 min; half-life of the native ShK molecule ([11]; in vivo): approximately 0.33 hour

**Q.** Which results are given for `CC[C@H](C)[C@@H]1NC(=O)[C@H](CCCCN)NC(=O)[C@@H](NC(=O)[C@H](CCCCN)NC(=O)[C@@H](NC(=O)[C@H](CC(N)=O)NC(=O)[C@@H](NC(=O)[C@@H](NC(=O)[C@@H](NC(=O)CN)C(C)C)[C@@H](C)CC)[C@@H](C)CC)C(C)C)CSSC[C@@H]2NC(=O)[C@H](C)NC(=O)CNC(=O)[C@H](Cc3ccccc3)NC(=O)[C@H](CCCNC(=N)N)NC(=O)[C@H](CCSC)NC(=O)CNC(=O)[C@H](C)NC(=O)[C@H](CCCCN)NC(=O)[C@H](CCCCN)NC(=O)[C@@H]3CSSC[C@@H](C(=O)N[C@H](C(=O)N4CCC[C@H]4C(=O)N[C@@H](CCCCN)C(=O)O)[C@@H](C)O)NC(=O)[C@H](Cc4c[nH]cn4)NC(=O)[C@H](CSSC[C@H](NC(=O)[C@H](CCC(N)=O)NC(=O)[C@H](CCCNC(=N)N)NC(=O)[C@H](CO)NC1=O)C(=O)N[C@@H](CC(C)C)C(=O)N[C@@H](CCC(=O)O)C(=O)N1CCC[C@H]1C(=O)N3)NC(=O)[C@H](CCCCN)NC(=O)CNC(=O)[C@H](CC(N)=O)NC(=O)[C@H](CCSC)NC2=O` [K27A] (H-GVIINVKCKISRQCLEPCKKAGMRFGACMNGKCHCTPK-OH; disulfide 8-28, 14-33, 18-35)?
**A.** IC50 (human Kv1.3 (CHO)): 0.232 nM; IC50 (human Kv1.1 [12]): 10.1 nM; IC50 (human Kv1.1 (HEK293)): > 3 nM; IC50 (human Kv1.3 channel [8]): 0.289 nM

B1: MGGHHHHHHGGGPSVFLFPPKPKDTLMISRTPEVTCVVVDVSHEDPEVKFNWYVDGVEVHNAKTKPREEQYNSTYRVVSVLTVLHQDWLNGKEYKCKVSNKALPAPIEKTISGGGGSGGGGSGVIINVKCKISRQCLEPCKKAGMRFGKCMNGKCHCTPK (protein)
chain: MGGHHHHHHGGGPSVFLFPPKPKDTLMISRTPEVTCVVVDVSHEDPEVKFNWYVDGVEVHNAKTKPREEQYNSTYRVVSVLTVLHQDWLNGKEYKCKVSNKALPAPIEKTISGGGGSGGGGSGVIINVKCKISRQCLEPCKKAGMRFGKCMNGKCHCTPK
**Q.** With B1 as the molecule, how does the “blockade of the whole blood cytokine response (IL-2 and IFNg), in words” value [2] read?
**A.** active in blocking inflammation; also recorded: modest blockade

**Q.** And the IC50 ([2]; read-out: WB/IL-2 (IC50))?
**A.** 38.5 nM

**Q.** What about the IC50 ([3]; read-out: WB/IFNg (IC50)) of the same molecule?
**A.** 55.2 nM
